Measurements taken from patent publication US10493077B2, “Fused imidazo-piperidine JAK inhibitor compound” (THERAVANCE BIOPHARMA R&D IP, LLC, priority 2017, dated 2019).

Assays:
[1] = biological target: T1, JAK3 (Homo sapiens, UniProt P52333); experiment: LanthaScreen JAK biochemical assay, JAK3; details: read-out: JAK 3 pKi (converted)
T1 construct: GST; purchased Life Technologies
Protocol: A panel of four LanthaScreen JAK biochemical assays (JAK1, 2, 3 and Tyk2) were carried in a common kinase reaction buffer (50 mM HEPES, pH 7.5, 0.01% Brij-35, 10 mM MgCl2, and 1 mM EGTA). Recombinant GST-tagged JAK enzymes and a GFP-tagged STAT1 peptide substrate were obtained from Life Technologies.
Serially diluted compound was pre-incubated with each of the four JAK enzymes and the substrate in white 384-well microplates (Corning) at ambient temperature for 1 h. ATP was subsequently added to initiate the kinase reactions in 10 μL total volume, with 1% DMSO. […] The plates were allowed to incubate at ambient temperature for 1 h before being read on the EnVision reader (Perkin Elmer). Emission ratio signals (520 nm/495 nm) were recorded and utilized to calculate the percent inhibition values based on DMSO and background controls.
For dose-response analysis, percent inhibition data were plotted vs. compound concentrations, and IC50 values were determined from a 4-parameter robust fit model with the Prism software (GraphPad Software). Results were expressed as pIC50 (negative logarithm of IC50) and subsequently converted to pKi (negative logarithm of dissociation constant, Ki) using the Cheng-Prusoff equation.

[2] = test system: IL-6 induced pSTAT3; experiment: Pharmacodynamic assay: inhibition of IL6-induced pSTAT3 in rats; format: in vivo, rat; details: 50 μg intravitreal, suspension formulation, 3 day pre-treatment prior to IL-6 challenge, female Lewis rats
Protocol: The ability of a single intravitreal administration of test compound to inhibit IL-6 induced pSTAT3 was measured in rat retina/choroid homogenates.
A suspension formulation was prepared by combining compound 1 of Example 2, with 0.5% hydroxypropyl methylcellulose (HPMC E5 LV), 0.02% Tween 80, and 9 mg/mL sodium chloride in purified water to attain a target concentration of 10 mg/mL.
Female Lewis rats were intravitreally (IVT) dosed (5 μL per eye) with the suspension formulation. Three days later, IL-6 (Peprotech; 0.1 mg/mL; 5 μL per eye) or vehicle was intravitreally administered to induce pSTAT3. Ocular tissues were dissected one hour after the second IVT injection with IL-6. The retina/choroid tissues were homogenized and pSTAT3 levels were measured using an ELISA (Cell Signaling Technology). The percent inhibition of IL-6-induced pSTAT3 was calculated in comparison to the vehicle/vehicle and vehicle/IL-6 groups. Inhibition of greater than 100% reflects a reduction of pSTAT3 levels to below those observed in the vehicle/vehicle group.

[3] = biological target: T2, ALK (Homo sapiens, UniProt Q9UM73); experiment: Kinome screen, ALK; format: binding; details: screened at 1 μM
T2 construct: made in house; host or cells: T7 phage in E. coli (BL21-derived) or HEK-293
T2 sequence (Q9UM73 19-1620): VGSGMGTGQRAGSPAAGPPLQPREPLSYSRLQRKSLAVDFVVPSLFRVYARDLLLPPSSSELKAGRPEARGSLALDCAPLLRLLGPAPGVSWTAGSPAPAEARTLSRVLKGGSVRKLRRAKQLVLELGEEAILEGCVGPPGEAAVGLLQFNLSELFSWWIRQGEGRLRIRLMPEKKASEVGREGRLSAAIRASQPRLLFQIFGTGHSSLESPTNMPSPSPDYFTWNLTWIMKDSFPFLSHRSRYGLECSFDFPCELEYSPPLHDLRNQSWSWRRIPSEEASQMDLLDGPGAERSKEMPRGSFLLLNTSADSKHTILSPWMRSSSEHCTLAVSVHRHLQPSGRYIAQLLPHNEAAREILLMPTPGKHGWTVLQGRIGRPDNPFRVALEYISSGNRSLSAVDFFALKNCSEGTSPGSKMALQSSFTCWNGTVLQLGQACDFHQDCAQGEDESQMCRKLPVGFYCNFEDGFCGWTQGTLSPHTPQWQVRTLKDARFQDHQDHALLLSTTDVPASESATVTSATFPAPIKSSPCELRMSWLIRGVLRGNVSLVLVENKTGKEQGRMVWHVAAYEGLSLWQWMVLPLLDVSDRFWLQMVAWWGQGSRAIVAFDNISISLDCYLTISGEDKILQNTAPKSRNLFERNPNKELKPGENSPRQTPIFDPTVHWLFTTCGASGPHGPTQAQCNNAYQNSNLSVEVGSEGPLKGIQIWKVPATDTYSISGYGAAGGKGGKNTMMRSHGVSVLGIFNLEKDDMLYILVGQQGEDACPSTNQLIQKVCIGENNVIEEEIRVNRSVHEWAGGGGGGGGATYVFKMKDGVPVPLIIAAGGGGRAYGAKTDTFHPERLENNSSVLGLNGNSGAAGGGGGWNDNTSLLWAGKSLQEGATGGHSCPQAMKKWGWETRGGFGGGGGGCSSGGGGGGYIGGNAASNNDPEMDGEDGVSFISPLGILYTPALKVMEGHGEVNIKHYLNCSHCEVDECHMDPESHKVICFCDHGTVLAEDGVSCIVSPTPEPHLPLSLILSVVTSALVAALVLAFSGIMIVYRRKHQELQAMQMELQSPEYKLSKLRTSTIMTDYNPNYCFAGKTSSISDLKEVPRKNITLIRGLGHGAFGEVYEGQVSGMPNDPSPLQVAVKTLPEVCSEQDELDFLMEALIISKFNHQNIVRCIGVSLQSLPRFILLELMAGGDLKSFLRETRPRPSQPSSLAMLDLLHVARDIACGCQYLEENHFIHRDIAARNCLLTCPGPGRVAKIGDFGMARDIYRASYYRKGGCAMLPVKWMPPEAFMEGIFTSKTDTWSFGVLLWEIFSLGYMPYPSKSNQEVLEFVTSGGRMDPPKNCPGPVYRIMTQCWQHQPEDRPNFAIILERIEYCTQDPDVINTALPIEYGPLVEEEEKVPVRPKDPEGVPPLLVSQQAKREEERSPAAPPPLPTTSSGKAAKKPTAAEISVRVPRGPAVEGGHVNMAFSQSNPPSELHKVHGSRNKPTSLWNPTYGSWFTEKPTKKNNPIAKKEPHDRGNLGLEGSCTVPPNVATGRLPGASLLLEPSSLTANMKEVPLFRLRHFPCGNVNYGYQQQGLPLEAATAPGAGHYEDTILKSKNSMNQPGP
Protocol: (§1) Kinase-tagged T7 phage strains were grown in parallel in 24-well blocks in an E. coli host derived from the BL21 strain. E. coli were grown to log-phase and infected with T7 phage from a frozen stock (multiplicity of infection=0.4) and incubated with shaking at 32° C. until lysis (90-150 minutes). The lysates were centrifuged (6,000×g) and filtered (0.2 μm) to remove cell debris. The remaining kinases were produced in HEK-293 cells and subsequently tagged with DNA for qPCR detection.
(§2) Streptavidin-coated magnetic beads were treated with biotinylated small molecule ligands for 30 minutes at room temperature to generate affinity resins for kinase assays. The liganded beads were blocked with excess biotin and washed with blocking buffer (SeaBlock (Pierce), 1% BSA, 0.05% Tween 20, 1 mM DTT) to remove unbound ligand and to reduce non-specific phage binding. […] Test compounds were prepared as 40× stocks in 100% DMSO and directly diluted into the assay. All reactions were performed in polypropylene 384-well plates in a final volume of 0.04 ml. […] The beads were then re-suspended in elution buffer (1×PBS, 0.05% Tween 20, 0.5 μM non-biotinylated affinity ligand) and incubated at room temperature with shaking for 30 minutes. The kinase concentration in the eluates was measured by qPCR.

[4] = biological target: T3, CDK2 (Homo sapiens, UniProt P24941); experiment: Kinome screen, CDK2; format: binding; details: screened at 1 μM
T3 construct: made in house; host or cells: T7 phage in E. coli (BL21-derived) or HEK-293
Protocol: as §1, §2

[5] = biological target: T4, CDK9 (Homo sapiens, UniProt P50750); experiment: Kinome screen, CDK9; format: binding; details: screened at 1 μM
T4 construct: made in house; host or cells: T7 phage in E. coli (BL21-derived) or HEK-293
T4 sequence (P50750 whole entry): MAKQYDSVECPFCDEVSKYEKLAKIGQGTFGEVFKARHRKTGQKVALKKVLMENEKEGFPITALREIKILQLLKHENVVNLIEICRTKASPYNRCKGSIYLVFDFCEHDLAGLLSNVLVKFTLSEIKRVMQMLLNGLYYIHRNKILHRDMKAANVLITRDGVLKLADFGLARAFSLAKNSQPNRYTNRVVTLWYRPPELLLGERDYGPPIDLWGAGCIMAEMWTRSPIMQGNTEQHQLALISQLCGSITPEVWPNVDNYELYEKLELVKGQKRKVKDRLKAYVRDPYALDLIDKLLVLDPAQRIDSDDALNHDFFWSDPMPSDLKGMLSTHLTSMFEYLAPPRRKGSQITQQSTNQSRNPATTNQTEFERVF
Protocol: as §1, §2

[6] = biological target: T5, CSF1R (Homo sapiens, UniProt P07333); experiment: Kinome screen, CSF1R; format: binding; details: screened at 1 μM
T5 construct: made in house; host or cells: T7 phage in E. coli (BL21-derived) or HEK-293
Protocol: as §1, §2

[7] = biological target: T6, KIT (Homo sapiens, UniProt P10721); experiment: Kinome screen, KIT; format: binding; details: screened at 1 μM
T6 construct: made in house; host or cells: T7 phage in E. coli (BL21-derived) or HEK-293
T6 sequence (P10721 26-976): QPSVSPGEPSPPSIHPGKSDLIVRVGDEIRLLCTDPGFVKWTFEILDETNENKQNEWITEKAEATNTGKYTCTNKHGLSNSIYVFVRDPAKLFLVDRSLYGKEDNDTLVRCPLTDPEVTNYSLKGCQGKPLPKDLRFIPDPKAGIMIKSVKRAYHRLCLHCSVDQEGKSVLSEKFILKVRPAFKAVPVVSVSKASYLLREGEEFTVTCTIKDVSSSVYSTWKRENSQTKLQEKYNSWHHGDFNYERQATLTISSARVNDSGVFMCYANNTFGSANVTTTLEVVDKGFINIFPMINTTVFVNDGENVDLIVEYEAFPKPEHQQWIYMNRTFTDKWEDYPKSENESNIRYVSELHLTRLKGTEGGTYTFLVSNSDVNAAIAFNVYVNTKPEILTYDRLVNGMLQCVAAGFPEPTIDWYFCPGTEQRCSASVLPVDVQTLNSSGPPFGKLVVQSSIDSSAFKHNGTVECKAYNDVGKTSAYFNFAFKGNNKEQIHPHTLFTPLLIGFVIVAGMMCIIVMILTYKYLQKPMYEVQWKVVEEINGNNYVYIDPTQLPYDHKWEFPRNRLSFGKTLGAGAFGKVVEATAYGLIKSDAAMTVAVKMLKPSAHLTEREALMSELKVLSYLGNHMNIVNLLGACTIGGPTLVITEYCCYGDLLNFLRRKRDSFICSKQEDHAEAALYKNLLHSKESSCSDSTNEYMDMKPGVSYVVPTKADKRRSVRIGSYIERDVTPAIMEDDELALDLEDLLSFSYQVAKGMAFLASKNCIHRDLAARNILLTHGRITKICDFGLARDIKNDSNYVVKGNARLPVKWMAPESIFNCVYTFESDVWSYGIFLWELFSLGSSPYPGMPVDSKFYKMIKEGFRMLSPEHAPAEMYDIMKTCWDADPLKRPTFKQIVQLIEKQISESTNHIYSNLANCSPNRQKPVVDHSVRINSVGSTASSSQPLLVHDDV
Protocol: as §1, §2

[8] = biological target: T7, PLK4 (Homo sapiens, UniProt O00444); experiment: Kinome screen, PLK4; format: binding; details: screened at 1 μM
T7 construct: made in house; host or cells: T7 phage in E. coli (BL21-derived) or HEK-293
T7 sequence (O00444 whole entry): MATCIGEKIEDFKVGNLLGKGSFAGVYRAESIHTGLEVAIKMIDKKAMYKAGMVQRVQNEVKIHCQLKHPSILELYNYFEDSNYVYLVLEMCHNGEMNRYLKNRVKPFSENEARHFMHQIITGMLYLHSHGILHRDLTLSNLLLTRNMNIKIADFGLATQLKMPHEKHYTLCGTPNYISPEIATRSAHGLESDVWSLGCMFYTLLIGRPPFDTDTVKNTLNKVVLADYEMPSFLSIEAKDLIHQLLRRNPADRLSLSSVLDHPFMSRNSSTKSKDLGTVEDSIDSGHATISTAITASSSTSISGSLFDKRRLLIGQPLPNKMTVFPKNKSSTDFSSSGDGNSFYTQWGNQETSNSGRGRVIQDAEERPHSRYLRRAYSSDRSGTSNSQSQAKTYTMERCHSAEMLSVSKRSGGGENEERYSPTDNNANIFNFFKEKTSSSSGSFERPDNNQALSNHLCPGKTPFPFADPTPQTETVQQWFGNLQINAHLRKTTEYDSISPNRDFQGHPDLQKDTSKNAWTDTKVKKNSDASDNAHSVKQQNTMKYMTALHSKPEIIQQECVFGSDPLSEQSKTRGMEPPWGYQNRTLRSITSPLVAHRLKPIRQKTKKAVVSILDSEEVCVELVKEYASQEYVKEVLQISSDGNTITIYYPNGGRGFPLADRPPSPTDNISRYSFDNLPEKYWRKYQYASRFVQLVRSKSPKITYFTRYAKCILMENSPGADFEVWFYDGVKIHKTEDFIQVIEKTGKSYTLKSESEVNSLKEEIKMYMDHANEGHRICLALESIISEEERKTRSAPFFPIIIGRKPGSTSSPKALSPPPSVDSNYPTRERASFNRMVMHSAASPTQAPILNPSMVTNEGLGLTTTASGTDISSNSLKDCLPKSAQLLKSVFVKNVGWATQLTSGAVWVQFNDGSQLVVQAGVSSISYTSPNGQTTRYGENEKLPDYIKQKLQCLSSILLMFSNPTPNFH
Protocol: as §1, §2

[9] = biological target: T8, SLK (Homo sapiens, UniProt Q9H2G2); experiment: Kinome screen, SLK; format: binding; details: screened at 1 μM
T8 construct: made in house; host or cells: T7 phage in E. coli (BL21-derived) or HEK-293
T8 sequence (Q9H2G2 whole entry): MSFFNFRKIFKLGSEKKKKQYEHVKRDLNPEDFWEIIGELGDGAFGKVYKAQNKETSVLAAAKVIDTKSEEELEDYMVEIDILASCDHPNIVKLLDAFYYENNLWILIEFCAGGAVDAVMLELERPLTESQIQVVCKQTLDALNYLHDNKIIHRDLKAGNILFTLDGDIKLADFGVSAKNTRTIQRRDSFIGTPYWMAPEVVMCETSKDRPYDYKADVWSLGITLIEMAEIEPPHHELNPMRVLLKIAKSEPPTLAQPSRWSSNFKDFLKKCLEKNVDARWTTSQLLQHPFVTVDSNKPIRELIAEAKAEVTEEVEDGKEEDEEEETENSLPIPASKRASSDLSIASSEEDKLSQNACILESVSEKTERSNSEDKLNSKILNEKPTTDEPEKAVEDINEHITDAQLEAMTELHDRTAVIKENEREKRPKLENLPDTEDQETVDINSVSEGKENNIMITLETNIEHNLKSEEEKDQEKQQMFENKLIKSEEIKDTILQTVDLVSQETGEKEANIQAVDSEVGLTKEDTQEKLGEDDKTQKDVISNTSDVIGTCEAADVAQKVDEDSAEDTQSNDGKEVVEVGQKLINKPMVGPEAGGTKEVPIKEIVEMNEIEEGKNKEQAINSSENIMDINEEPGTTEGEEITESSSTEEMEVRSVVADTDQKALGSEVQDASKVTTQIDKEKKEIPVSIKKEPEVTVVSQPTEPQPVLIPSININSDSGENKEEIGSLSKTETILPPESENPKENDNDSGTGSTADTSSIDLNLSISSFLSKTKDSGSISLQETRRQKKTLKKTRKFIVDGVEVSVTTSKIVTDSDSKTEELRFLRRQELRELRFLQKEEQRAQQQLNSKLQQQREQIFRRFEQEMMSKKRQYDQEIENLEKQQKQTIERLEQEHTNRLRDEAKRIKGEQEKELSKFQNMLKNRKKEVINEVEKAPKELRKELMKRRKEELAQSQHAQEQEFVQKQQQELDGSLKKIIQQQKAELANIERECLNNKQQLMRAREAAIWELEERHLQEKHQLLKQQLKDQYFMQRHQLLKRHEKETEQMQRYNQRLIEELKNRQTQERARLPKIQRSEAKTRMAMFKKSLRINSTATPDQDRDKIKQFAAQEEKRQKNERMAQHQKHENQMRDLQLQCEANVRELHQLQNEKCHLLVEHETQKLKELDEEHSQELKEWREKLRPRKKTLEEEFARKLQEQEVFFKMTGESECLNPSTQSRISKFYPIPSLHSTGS
Protocol: as §1, §2

[10] = biological target: T9, SYK (Homo sapiens, UniProt P43405); experiment: Kinome screen, SYK; format: binding; details: screened at 1 μM
T9 construct: made in house; host or cells: T7 phage in E. coli (BL21-derived) or HEK-293
Protocol: as §1, §2

Question: `CCc1cc(O)c(F)cc1-c1cc(F)c2c(-c3nc4c([nH]3)CCN(C(=O)CN3CCOCC3)C4)n[nH]c2c1` [Compound 1, 1-(2-(6-(2-ethyl-5-fluoro-4-hydroxyphenyl)-4-fluoro-1H-indazol-3-yl)-1,4,6,7-tetrahydro-5H-imidazo[4,5-c]pyridin-5-yl)-2-morpholinoethan-1-one] was tested. Which Ki [1] did it give?
Answer: The Ki was 0.2 nM.

Question: And the “inhibition of IL-6-induced pSTAT3 in retina/choroid tissues” value [2]?
Answer: Its value is 116%.

Question: And the inhibition at 1 µM [3]?
Answer: The inhibition at 1 µM was 75%.

Question: What about the inhibition at 1 µM [4] of the same compound?
Answer: The inhibition at 1 µM was 6%.

Question: What about the inhibition at 1 µM [5] of the same compound?
Answer: Its inhibition at 1 µM is 9%.

Question: What about the inhibition at 1 µM [6] of the same compound?
Answer: Its inhibition at 1 µM is 98%.

Question: And the inhibition at 1 µM [7]?
Answer: Its inhibition at 1 µM is 87%.

Question: And the inhibition at 1 µM [8]?
Answer: Its inhibition at 1 µM is 58%.

Question: And the inhibition at 1 µM [9]?
Answer: Its inhibition at 1 µM is 100%.

Question: And the inhibition at 1 µM [10]?
Answer: The inhibition at 1 µM was 46%.
